≈ marks a conversion by molar mass, not a printed value. Where two headings read alike, the source gives them in different places.
How the values were obtained:
Assay type in all cases: cell-based
[1] = test system: Staphylococcus aureus 757 (MRSA); assay: MIC, broth microdilution, SA 757; details: read-out: MIC SA 757
Method: (§1) Antibacterial activity in vitro is investigated by broth microdilution method in Meuller-Hinton broth as recommended by NCCLS. All strains tested are clinical isolates either sensitive or resistant to natural glycopeptides. MIC values were determined using the CLSI-recommended broth microdilution procedure (Clinical and Laboratory Standards Institute, Methods for Dilution Antimicrobial Susceptibility Tests for Bacteria That Grow Aerobically; Approved Standard-Seventh Edition.). Automated liquid handlers (Multidrop 384, Labsystems, Helsinki, Finland; Biomek 2000 and Multimek 96, Beckman Coulter, Fullerton Calif.) were used to conduct serial dilutions and liquid transfers. The MIC value for vancomycin is given for comparison. The abbreviations for organisms tested are as follow: SA 100—Staphylococcus aureus 100 (ATCC 29213); SA 757—Staphylococcus aureus 757 (MRSA); SA 2012—Staphylococcus aureus 2012 (VISA); SE 835—Staphylococcus epidermidis 835; SE 831—Staphylococcus epidermidis 831 (MRSE); EFc 101—Enterococcus faecalis 101 (ATCC 29212); EFc 848—Enterococcus faecalis 848 (VRE, Van A); EFcm 800—Enterococcus faecium 800; EFcm 752—Enterococcus faecium 752 (VRE, Van A); SPNE 1195—Streptococcus pneumoniae 1195 (ATCC 49619); SPY 712—Streptococcus pyogenes 712.

[2] = test system: Staphylococcus epidermidis 831 (MRSE); assay: MIC, broth microdilution, SE 831; details: Staphylococcus epidermidis, read-out: MIC SE 831
Method: as §1

[3] = test system: Enterococcus faecalis 848 (VRE, Van A); assay: MIC, broth microdilution, EFc 848; details: VRE, Van A, class symbols, read-out: MIC E FC 848
Method: as §1

[4] = test system: Staphylococcus aureus 2012 (VISA); assay: MIC, broth microdilution, SA 2012; details: read-out: MIC SA 2012
Method: as §1

[5] = test system: Enterococcus faecium 752 (VRE, Van A); assay: MIC, broth microdilution, EFcm 752; details: VRE, Van A, class symbols, read-out: MIC E FCM 752
Method: as §1

[6] = test system: Staphylococcus epidermidis 835; assay: MIC, broth microdilution, SE 835; details: Staphylococcus epidermidis, 835, class symbols, read-out: MIC SE 835
Method: as §1

[7] = test system: Enterococcus faecalis 101 (ATCC 29212); assay: MIC, broth microdilution, EFc 101; details: Enterococcus faecalis, ATCC29212, class symbols, read-out: MIC E FC 101
Method: as §1

[8] = test system: Streptococcus pyogenes 712; assay: MIC, broth microdilution, SPY 712; details: Streptococcus pyogenes, 712, class symbols, read-out: MIC S PYO 712
Method: as §1

[9] = test system: Staphylococcus aureus 100 (ATCC 29213); assay: MIC, broth microdilution, SA 100; details: Staphylococcus aureus, ATCC29213, class symbols, read-out: MIC SA 100
Method: as §1

Enterococcus faecium 800 = assay: MIC, broth microdilution, EFcm 800; details: Enterococcus faecium, 800, class symbols, read-out: MIC E FCM 800
Method: as §1

[10] = test system: Streptococcus pneumoniae 1195 (ATCC 49619); assay: MIC, broth microdilution, SPNE 1195; details: Streptococcus pneumoniae, ATCC49619, class symbols, read-out: MIC S PNE 1195
Method: as §1

[11] = Table 2, in the presence of 0.002% Polysorbate 80, class symbols
[12] = Table 2, in the presence of 0.002% Polysorbate 80

SMILES | MIC [1, 11] [µg/mL] | MIC [2, 11] [µg/mL] | MIC [3, 12] [µg/mL] | MIC [4, 11] [µg/mL] | MIC [5, 12] [µg/mL] | MIC [6, 12] [µg/mL] | MIC [7, 12] [µg/mL] | MIC [8, 12] [µg/mL] | MIC [9, 12] [µg/mL] | MIC (Enterococcus faecium 800; [12]) [µg/mL] | MIC [10, 12] [µg/mL] | also measured
CNCCOc1ccc(C(=O)NC(=O)C[C@@H]2NC(=O)[C@H](NC(=O)[C@@H](CC(C)C)NC)[C@H](O)c3ccc(c(Cl)c3)Oc3cc4cc(c3O[C@@H]3O[C@H](CO)[C@@H](O)[C@H](O)[C@H]3O[C@H]3C[C@](C)(N)[C@H](O)[C@H](C)O3)Oc3ccc(cc3Cl)[C@@H](O)[C@@H]3NC(=O)[C@H](NC(=O)[C@@H]4NC2=O)c2ccc(O)c(c2)-c2c(O)cc(O)cc2[C@@H](C(=O)NC2C4CC5CC(C4)CC2C5)NC3=O)cc1 (stereo partly shown) [Compound 67] | 0.01 to 0.5 | 0.01 to 0.5 | 4 to 8 | 1 to 2 | 1 to 2 | 1 to 2 | 0.01 to 0.5 | 0.01 to 0.5 | 0.01 to 0.5 | 0.01 to 0.5 |  | 
CN[C@H](CC(C)C)C(=O)N[C@H]1C(=O)N[C@@H](CC(=O)NC(=O)c2ccc(OC)cc2)C(=O)N[C@H]2C(=O)N[C@H]3C(=O)N[C@H](C(=O)N[C@H](C(=O)NC4C5CC6CC(C5)CC4C6)c4cc(O)cc(O)c4-c4cc3ccc4O)[C@H](O)c3ccc(c(Cl)c3)Oc3cc2cc(c3O[C@@H]2O[C@H](CO)[C@@H](O)[C@H](O)[C@H]2O[C@H]2C[C@](C)(N)[C@H](O)[C@H](C)O2)Oc2ccc(cc2Cl)[C@H]1O (stereo partly shown) [Compound 62] | 0.01 to 0.5 | 0.01 to 0.5 | 4 to 8 | 2 to 4 | 0.5 to 1 | 0.01 to 0.5 | 0.01 to 0.5 | 0.01 to 0.5 | 0.01 to 0.5 | 0.01 to 0.5 | 0.01 to 0.5 | 
CCCCCCCCC(=O)NC(=O)C[C@@H]1NC(=O)[C@H](NC(=O)[C@@H](CC(C)C)NC)[C@H](O)c2ccc(c(Cl)c2)Oc2cc3cc(c2O[C@@H]2O[C@H](CO)[C@@H](O)[C@H](O)[C@H]2O[C@H]2C[C@](C)(N)[C@H](O)[C@H](C)O2)Oc2ccc(cc2Cl)[C@@H](O)[C@@H]2NC(=O)[C@H](NC(=O)[C@@H]3NC1=O)c1ccc(O)c(c1)-c1c(O)cc(O)cc1[C@@H](C(=O)NC1C3CC4CC(C3)CC1C4)NC2=O (stereo partly shown) [Compound 42] |  |  |  |  |  |  |  |  |  |  |  | MIC ([1]; Table 1, class symbols): 0.01 to 0.5 µg/mL (≈ 0.0058 to 0.29 µM); MIC ([2]; Table 1, class symbols): 0.01 to 0.5 µg/mL (≈ 0.0058 to 0.29 µM); MIC ([3]; Table 1): 1 to 2 µg/mL (≈ 0.58 to 1.16 µM); MIC ([4]; Table 1, class symbols): 1 to 2 µg/mL (≈ 0.58 to 1.16 µM); MIC ([5]; Table 1): 0.01 to 0.5 µg/mL (≈ 0.0058 to 0.29 µM); MIC ([6]; Table 1): 0.01 to 0.5 µg/mL (≈ 0.0058 to 0.29 µM); MIC ([10]; Table 1): 0.01 to 0.5 µg/mL (≈ 0.0058 to 0.29 µM); MIC ([7]; Table 1): 0.01 to 0.5 µg/mL (≈ 0.0058 to 0.29 µM); MIC ([8]; Table 1): 0.01 to 0.5 µg/mL (≈ 0.0058 to 0.29 µM); MIC ([9]; Table 1): 0.01 to 0.5 µg/mL (≈ 0.0058 to 0.29 µM); MIC (Enterococcus faecium 800; Table 1): 0.01 to 0.5 µg/mL (≈ 0.0058 to 0.29 µM)
CN[C@H](CC(C)C)C(=O)N[C@H]1C(=O)N[C@@H](CC(=O)NC(=O)c2ccc(OCCN)c(OCCN)c2)C(=O)N[C@H]2C(=O)N[C@H]3C(=O)N[C@H](C(=O)N[C@H](C(=O)NC4C5CC6CC(C5)CC4C6)c4cc(O)cc(O)c4-c4cc3ccc4O)[C@H](O)c3ccc(c(Cl)c3)Oc3cc2cc(c3O[C@@H]2O[C@H](CO)[C@@H](O)[C@H](O)[C@H]2O[C@H]2C[C@](C)(N)[C@H](O)[C@H](C)O2)Oc2ccc(cc2Cl)[C@H]1O (stereo partly shown) [Compound 165] | 0.01 to 0.5 | 0.01 to 0.5 | > 16 | 1 to 2 | 2 to 4 | 0.5 to 1 | 0.01 to 0.5 | 0.01 to 0.5 | 0.01 to 0.5 | 0.01 to 0.5 | 0.01 to 0.5 | 

Source: US20120252741A1, “NOVEL SEMI-SYNTHETIC GLYCOPEPTIDES AS ANTIBACTERIAL AGENTS” (priority 2008, published 2012)
